The numbers were not newly measured in patent publication US20220273822A1, “ANIMAL MODEL OF IDIOPATHIC PULMONARY FIBROSIS, ITS CONSTRUCTION METHOD AND USE” (National Institute of Biological Sciences, Beijing, priority 2019, published 2022), which cites them from elsewhere.

The conditions of this series: IPF.

With `COC(=O)c1ccc2c(c1)NC(=O)/C2=C(\Nc1ccc(N(C)C(=O)CN2CCN(C)CC2)cc1)c1ccccc1` [nintedanib], the mortality entry is reported as “tendency of reducing mortality” and the survival time result is on record as “failed to show significantly increased survival time”.
In the case of `Cc1ccc(=O)n(-c2ccccc2)c1` [pirfenidone], the mortality entry is given as “tendency of reducing mortality” and the survival time result was “failed to show significantly increased survival time”.
